Assay results published in ChEMBL document CHEMBL4425093, “Picrasidine N Is a Subtype-Selective PPARβ/δ Agonist” (J Nat Prod, 2016).
The source made the active and inactive calls. No cut-off for these calls is given here.

Key:
[1] = tested on: HepG2; test: Upregulation of ANGPTL4 mRNA expression in human HepG2 cells transfected with PPARbeta/delta siRNA at 10 uM after 24 hrs by qRT-PCR method; format: functional, cell-based
[2] = tested on: HepG2; test: Induction of PPRE transcriptional activation in human HepG2 cells at 10 uM incubated for 24 hrs by dual luciferase reporter gene assay; format: functional, cell-based
[3] = target: T1, Peroxisome proliferator-activated receptor delta (Homo sapiens) (UniProt Q03181); test: Agonist activity at GAL4-DBD fused human PPARbeta/delta-LBD (136 to 441 residues) expressed in human HepG2 cells at 10 uM by luciferase reporter gene based mammalian one hybrid assay; format: cell-based
T1 sequence (whole entry): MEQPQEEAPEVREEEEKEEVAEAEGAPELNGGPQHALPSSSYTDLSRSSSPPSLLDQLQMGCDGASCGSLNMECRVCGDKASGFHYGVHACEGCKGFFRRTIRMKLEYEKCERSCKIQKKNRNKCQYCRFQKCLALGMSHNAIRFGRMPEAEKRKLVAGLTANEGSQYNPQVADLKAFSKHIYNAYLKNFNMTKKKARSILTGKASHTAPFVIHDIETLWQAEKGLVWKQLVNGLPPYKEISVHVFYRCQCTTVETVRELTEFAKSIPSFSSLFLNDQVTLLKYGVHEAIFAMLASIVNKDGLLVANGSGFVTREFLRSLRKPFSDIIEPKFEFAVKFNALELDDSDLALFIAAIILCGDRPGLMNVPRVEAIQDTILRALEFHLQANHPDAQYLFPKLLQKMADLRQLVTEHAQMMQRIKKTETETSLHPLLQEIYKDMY

[4] = target: T1, Peroxisome proliferator-activated receptor delta (Homo sapiens); test: Agonist activity at full length human N-terminal Myc-tagged PPARbeta/delta expressed in human HepG2 cells coexpressing RXRalpha assessed as transcriptional activation of PPRE incubated for 24 hrs by dual luciferase reporter gene assay; format: cell-based
[5] = target: T1, Peroxisome proliferator-activated receptor delta (Homo sapiens); test: Agonist activity at GAL4-DBD fused human PPARbeta/delta-LBD (136 to 441 residues) expressed in human HepG2 cells after 24 hrs by dual luciferase reporter gene assay; format: cell-based
[6] = target: T2, Peroxisome proliferator-activated receptor alpha (Homo sapiens) (UniProt Q07869); test: Agonist activity at GAL4-DBD fused human PPARalpha-LBD (159 to 468 residues) expressed in human HepG2 cells at 0.1 to 20 uM after 24 hrs by dual luciferase reporter gene assay; format: cell-based
T2 sequence (whole entry): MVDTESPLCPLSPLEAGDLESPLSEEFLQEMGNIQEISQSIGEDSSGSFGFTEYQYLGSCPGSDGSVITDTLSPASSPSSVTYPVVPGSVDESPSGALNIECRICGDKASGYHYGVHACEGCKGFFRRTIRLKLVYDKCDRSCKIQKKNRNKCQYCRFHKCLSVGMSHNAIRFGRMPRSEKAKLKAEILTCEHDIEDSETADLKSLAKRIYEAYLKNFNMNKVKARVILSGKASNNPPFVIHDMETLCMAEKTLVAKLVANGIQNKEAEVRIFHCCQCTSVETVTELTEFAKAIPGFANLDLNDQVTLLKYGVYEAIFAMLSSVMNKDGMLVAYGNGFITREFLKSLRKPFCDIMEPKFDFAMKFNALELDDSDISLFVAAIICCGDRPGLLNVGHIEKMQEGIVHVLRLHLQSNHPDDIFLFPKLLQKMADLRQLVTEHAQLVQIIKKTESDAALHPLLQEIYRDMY

[7] = target: T3, Peroxisome proliferator-activated receptor gamma (Homo sapiens) (UniProt P37231); test: Agonist activity at GAL4-DBD fused human PPARgamma-LBD (157 to 475 residues) expressed in human HepG2 cells at 0.1 to 20 uM after 24 hrs by dual luciferase reporter gene assay; format: cell-based
T3 sequence (whole entry): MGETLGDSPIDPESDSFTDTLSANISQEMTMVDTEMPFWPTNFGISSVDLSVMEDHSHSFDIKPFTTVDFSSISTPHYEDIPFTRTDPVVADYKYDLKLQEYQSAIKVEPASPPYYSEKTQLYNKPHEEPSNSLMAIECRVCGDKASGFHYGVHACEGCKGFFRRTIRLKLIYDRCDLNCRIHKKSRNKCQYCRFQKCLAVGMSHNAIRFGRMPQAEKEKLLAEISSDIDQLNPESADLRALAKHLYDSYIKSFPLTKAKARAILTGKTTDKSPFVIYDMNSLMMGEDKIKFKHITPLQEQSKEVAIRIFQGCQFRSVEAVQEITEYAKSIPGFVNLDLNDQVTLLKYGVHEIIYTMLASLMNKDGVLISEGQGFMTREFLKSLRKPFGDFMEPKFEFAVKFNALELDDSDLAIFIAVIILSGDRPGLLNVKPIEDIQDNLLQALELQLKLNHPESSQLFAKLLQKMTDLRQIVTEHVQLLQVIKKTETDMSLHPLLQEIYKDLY

[8] = target: T1, Peroxisome proliferator-activated receptor delta (Homo sapiens); test: Agonist activity PPARbeta/delta in human PC3 cells assessed as induction of ANGPTL4 mRNA expression at 10 uM incubated for 24 hrs by qRT-PCR method; format: cell-based
[9] = target: T1, Peroxisome proliferator-activated receptor delta (Homo sapiens); test: Agonist activity at PPARbeta/delta in human HepG2 cells assessed as induction of ANGPTL4 mRNA expression incubated for 24 hrs by qRT-PCR method; format: cell-based
[10] = target: T1, Peroxisome proliferator-activated receptor delta (Homo sapiens); test: Agonist activity PPARbeta/delta in human MCF7 cells assessed as induction of ANGPTL4 mRNA expression at 10 uM incubated for 24 hrs by qRT-PCR method; format: cell-based

Question: Which Activity [1] does the source give for `Cc1cc(SCc2sc(-c3ccc(C(F)(F)F)c(F)c3)nc2C)ccc1OCC(=O)O` here?
Answer: inactive

Question: What about the Activity [2] of the same compound?
Answer: Active

Question: For `COc1cccc2c1[nH]c1c(CCn3ccc4c5n(c(=O)c(=O)cc3-5)c3ccccc43)ncc(OC)c12`, which Activity [3] is on record?
Answer: inactive

Question: With `COc1cnc(CCn2ccc3c4n(c(=O)c(=O)cc2-4)c2ccccc32)c2c1c1ccccc1n2OC` as the compound, how does the Activity [4] read?
Answer: Dose-dependent effect

Question: What about the Activity [5] of the same compound?
Answer: Dose-dependent effect

Question: And the Activity [1]?
Answer: inactive

Question: What about the Activity [2] of the same compound?
Answer: Active

Question: And the Activity [6]?
Answer: inactive

Question: And the Activity [7]?
Answer: Active

Question: What about the Activity [8] of the same compound?
Answer: inactive

Question: And the Activity [9]?
Answer: Dose-dependent effect

Question: What about the Activity [10] of the same compound?
Answer: Active

Question: Which Activity [3] does the source give for `CCCCn1ccc2c3n(c(=O)c(=O)cc1-3)c1ccccc21` here?
Answer: inactive
